Results taken from ChEMBL document CHEMBL2029344, “A new class of prolylcarboxypeptidase inhibitors, part 2: the aminocyclopentanes” (Bioorg Med Chem Lett, 2012).

What was measured:
[1] = Drug uptake in C57 mouse brain at 10 mg/kg, po after 20 hrs by LC/MS analysis; type: ADME, organism-based; design: dose 10 mg/kg, route oral; settings: read-out: Drug uptake
Mus musculus [2] = assay: Ex-vivo inhibition of PrCP in heat inactivated 100% plasma of C57 mouse assessed as target engagement at 10 mg/kg, po after 20 hrs by FRET analysis; type: functional; design: scale not given: the % may be the effect or the level left
Mus musculus [3] = assay: Ex-vivo inhibition of PrCP in heat inactivated 100% plasma of C57 mouse assessed as target engagement calculated as [cmpd]plasma/([cmpd]plasma + Ki (heat inactivated plasma))x100 at 10 mg/kg, po after 20 hrs by FRET analysis; type: functional; design: scale not given: the % may be the effect or the level left
[4] = Drug uptake in C57 mouse brain at 30 mg/kg, po after 20 hrs by LC/MS analysis; type: ADME, organism-based; design: dose 30 mg/kg, route oral; settings: read-out: Drug uptake
Mus musculus [5] = assay: Ex-vivo inhibition of po dosed mouse PrCP by FRET analysis in presence of heat inactivated 25% plasma; type: functional, organism-based
Mus musculus [6] = assay: Ex-vivo inhibition of po dosed mouse PrCP by FRET analysis in absence of plasma; type: functional, organism-based
[7] = Half life in mouse at 1 mg/kg, iv and 30 mg/kg, po; type: ADME, organism-based; settings: in vivo
Mus musculus [8] = assay: Dose normalized AUC in mouse at 1 mg/kg, iv and 30 mg/kg, po; type: ADME, organism-based; settings: in vivo
[9] = Ratio of drug uptake in brain to plasma of C57 mouse at 10 mg/kg, po after 20 hrs by LC/MS analysis; type: ADME, organism-based; design: dose 10 mg/kg, route oral; settings: read-out: BPR
[10] = Percentage unbound in 10% mouse plasma; type: ADME, cell-free
[11] = Clearance in mouse at 1 mg/kg, iv and 30 mg/kg, po; type: ADME, organism-based; settings: in vivo
[12] = Oral bioavailability in mouse at 30 mg/kg; type: ADME, organism-based; settings: in vivo
[13] = Stability in mouse liver microsomes after 30 mins by LC/MS analysis; type: ADME, Microsome; settings: read-out: Stability
[14] = Stability in human liver microsomes after 30 mins by LC/MS analysis; type: ADME, Microsome; settings: read-out: Stability
[15] = Drug uptake in C57 mouse plasma at 10 mg/kg, po after 20 hrs by LC/MS analysis; type: ADME, organism-based; design: dose 10 mg/kg, route oral
Mus musculus [16] = assay: Ex-vivo inhibition of po dosed mouse PrCP by FRET analysis in presence of heat inactivated 100% plasma; type: functional, organism-based
[17] = Drug uptake in C57 mouse plasma at 30 mg/kg, po after 20 hrs by LC/MS analysis; type: ADME, organism-based; design: dose 30 mg/kg, route oral
Mus musculus [18] = assay: Ex-vivo inhibition of PrCP in heat inactivated 100% plasma of C57 mouse assessed as target engagement calculated as [cmpd]plasma/([cmpd]plasma + Ki (heat inactivated plasma))x100 at 30 mg/kg, po after 20 hrs by FRET analysis; type: functional; design: scale not given: the % may be the effect or the level left
Mus musculus [19] = assay: Ex-vivo inhibition of PrCP in heat inactivated 100% plasma of C57 mouse assessed as target engagement at 30 mg/kg, po after 20 hrs by FRET analysis; type: functional; design: scale not given: the % may be the effect or the level left
[20] = Volume of distribution in mouse at 1 mg/kg, iv and 30 mg/kg, po; type: ADME, organism-based; settings: in vivo
[21] = Apparent permeability across pig LLC-PK1 cells at 1 uM; type: ADME, cell-based, Sus scrofa
[22] = Ratio of drug uptake in brain to plasma of C57 mouse at 30 mg/kg, po after 20 hrs by LC/MS analysis; type: ADME, organism-based; design: dose 30 mg/kg, route oral; settings: read-out: BPR
[23] = Percentage unbound in 10% human plasma; type: ADME, cell-free
[24] = Drug uptake in C57 mouse brain at 3 mg/kg, po after 20 hrs by LC/MS analysis; type: ADME, organism-based; design: dose 3 mg/kg, route oral; settings: read-out: Drug uptake
Mus musculus [25] = assay: Ex-vivo inhibition of PrCP in heat inactivated 100% plasma of po dosed C57 mouse assessed as target engagement after 20 hrs by FRET analysis; type: functional; design: scale not given: the % may be the effect or the level left
[26] = Drug uptake in C57 mouse plasma at 3 mg/kg, po after 20 hrs by LC/MS analysis; type: ADME, organism-based; design: dose 3 mg/kg, route oral
[27] = molecular target: T1, Lysosomal Pro-X carboxypeptidase (Mus musculus, UniProt Q7TMR0); assay: Inhibition of mouse PrCP
T1 sequence (Q7TMR0 whole entry): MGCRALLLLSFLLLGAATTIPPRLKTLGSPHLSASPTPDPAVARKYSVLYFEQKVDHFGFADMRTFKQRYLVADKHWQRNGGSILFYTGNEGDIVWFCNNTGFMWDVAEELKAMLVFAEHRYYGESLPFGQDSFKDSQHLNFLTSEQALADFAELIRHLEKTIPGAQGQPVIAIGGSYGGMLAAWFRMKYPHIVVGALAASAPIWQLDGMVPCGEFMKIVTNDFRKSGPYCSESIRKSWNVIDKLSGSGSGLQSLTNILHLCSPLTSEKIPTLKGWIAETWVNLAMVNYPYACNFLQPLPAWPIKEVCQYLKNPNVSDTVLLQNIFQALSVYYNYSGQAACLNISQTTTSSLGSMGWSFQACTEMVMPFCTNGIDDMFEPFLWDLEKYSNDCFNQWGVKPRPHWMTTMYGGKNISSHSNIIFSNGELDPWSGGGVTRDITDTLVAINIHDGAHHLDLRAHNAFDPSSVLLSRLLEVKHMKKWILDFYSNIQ

Mus musculus [28] = assay: Toxicity in po dosed C57 mouse; type: organism-based; settings: in vivo
[29] = Ratio of drug uptake in brain to plasma of C57 mouse at 3 mg/kg, po after 20 hrs by LC/MS analysis; type: ADME, organism-based; design: dose 3 mg/kg, route oral; settings: read-out: BPR
Mus musculus [30] = assay: Ex-vivo inhibition of PrCP in heat inactivated 100% plasma of C57 mouse assessed as target engagement calculated as [cmpd]plasma/([cmpd]plasma + Ki (heat inactivated plasma))x100 at 3 mg/kg, po after 20 hrs by FRET analysis; type: functional; design: scale not given: the % may be the effect or the level left
Mus musculus [31] = assay: Ex-vivo inhibition of PrCP in heat inactivated 100% plasma of C57 mouse assessed as target engagement at 3 mg/kg, po after 20 hrs by FRET analysis; type: functional; design: scale not given: the % may be the effect or the level left

Compound	concentration at 20 h [1]	Activity (Mus musculus [2])	Activity (Mus musculus [3])	concentration at 20 h [4]	Ki (Mus musculus [5])	Ki (Mus musculus [6])	Kp at 20 h [9]	fraction unbound [10]	remaining at 0.5 h [13]	remaining at 0.5 h [14]	concentration at 20 h [15]	Ki (Mus musculus [16])	concentration at 20 h [17]	Activity (Mus musculus [18])	Activity (Mus musculus [19])	Papp at 1 µM [21]	Kp at 20 h [22]	fraction unbound [23]	further results
Cc1cc(C2CCN(C(=O)[C@@H]3C[C@@](C)(N)C[C@H]3c3ccc(F)cc3F)CC2)n(-c2ccc(F)c(Cl)c2)n1	0.039 µM	62.8%	96.1%	0.363 µM	3.7 nM	1.6 nM	0.18	0.036	90%	60%	0.246 µM	10.1 nM	2.83 µM	99.6%	>=100%	240 nm/s	0.17	0.043	half-life [7]: 4.9 h; AUC/dose (Mus musculus [8]): 1 µM·kg·h/mg; clearance [11]: 1.08 L/h/kg; bioavailability [12]: 57%; Vd [20]: 6.2 L/kg
C[C@@]1(N)C[C@H](C(=O)N2CCC(c3ccnn3-c3ccc(F)c(Cl)c3)CC2)[C@@H](c2ccc(F)cc2F)C1	0.051 µM	72%	100%	0.142 µM	1.5 nM	0.7 nM	0.28	0.035	73%	20%	0.185 µM	3.9 nM	2.13 µM	100%	>=100%	217 nm/s	0.07	0.065	concentration at 20 h [24]: 0.006 µM; Activity (Mus musculus [25]): 38%; concentration at 20 h [26]: 0.023 µM; IC50 [27]: 1 nM; Activity (Mus musculus [28]): Non-toxic; Kp at 20 h [29]: 0.18; Activity (Mus musculus [30]): 84.2%; Activity (Mus musculus [31]): 31%
